Experiment: mn = molality of the nth substance listed, in mol/kg
Details: Liquid, Vibrating tube method

[Ca+2].[Cl-].[Cl-] [calcium chloride] + CCO
mass density [kg/m3]
Details | 348.15 K | 373.15 K
370 kPa, m1 = 0.09327 | – | 722.5
390 kPa, m1 = 1.55 | – | 828.22
420 kPa, m1 = 1.266 | – | 808.17
680 kPa, m1 = 0.1743 | – | 728.72
870 kPa, m1 = 0.6899 | – | 766.95
920 kPa, m1 = 0.9896 | – | 788.74
940 kPa, m1 = 0.4379 | – | 749.01
4980 kPa, m1 = 1.266 | – | 813.49
5040 kPa, m1 = 0.9896 | – | 794.18
5060 kPa, m1 = 0.1743 | – | 735.26
5140 kPa, m1 = 1.55 | – | 834.25
5150 kPa, m1 = 0.6899 | – | 772.7
5170 kPa, m1 = 0.4379 | – | 754.76
5180 kPa, m1 = 0.09327 | – | 729.16
9780 kPa, m1 = 1.266 | – | 818.85
10150 kPa, m1 = 1.55 | – | 840.15
10480 kPa, m1 = 0.09327 | – | 736.08
10480 kPa, m1 = 0.4379 | – | 761.55
10740 kPa, m1 = 0.1743 | – | 743.09
10740 kPa, m1 = 0.6899 | – | 779.75
10740 kPa, m1 = 0.9896 | – | 801.21
15190 kPa, m1 = 0.4379 | – | 767.19
15210 kPa, m1 = 0.6899 | – | 785.01
15250 kPa, m1 = 0.1743 | – | 748.79
15260 kPa, m1 = 1.266 | – | 824.65
15290 kPa, m1 = 1.55 | – | 845.7
15360 kPa, m1 = 0.9896 | – | 806.48
15720 kPa, m1 = 0.09327 | – | 742.49
20030 kPa, m1 = 1.266 | – | 829.44
20140 kPa, m1 = 1.55 | – | 850.48
20160 kPa, m1 = 0.4379 | – | 772.75
20280 kPa, m1 = 0.09327 | – | 747.72
20480 kPa, m1 = 0.1743 | 776.42 | –
20640 kPa, m1 = 0.1743 | – | 754.98
20640 kPa, m1 = 1.55 | 872.48 | –
20670 kPa, m1 = 0.9896 | 834.64 | –
20750 kPa, m1 = 0.9896 | – | 812.16
20840 kPa, m1 = 0.4379 | 796.01 | –
20860 kPa, m1 = 0.6899 | – | 791.16
25040 kPa, m1 = 0.4379 | 799.76 | –
25060 kPa, m1 = 1.266 | 855.9 | –
25130 kPa, m1 = 0.4379 | – | 777.9
25160 kPa, m1 = 0.09327 | 774.52 | –
25180 kPa, m1 = 0.1743 | – | 759.68
25190 kPa, m1 = 1.55 | 876.08 | –
25410 kPa, m1 = 1.266 | – | 834.54
25620 kPa, m1 = 0.1743 | 781.15 | –
25670 kPa, m1 = 0.09327 | – | 753.48
25740 kPa, m1 = 0.6899 | 818.02 | –
25750 kPa, m1 = 1.55 | – | 855.45
25840 kPa, m1 = 0.6899 | – | 796.14
25940 kPa, m1 = 0.9896 | 839.09 | 817.13
29980 kPa, m1 = 1.266 | – | 838.62
30140 kPa, m1 = 1.55 | – | 858.93
30150 kPa, m1 = 0.6899 | – | 800.1
30160 kPa, m1 = 0.9896 | – | 820.83
30240 kPa, m1 = 0.4379 | – | 782.77
30420 kPa, m1 = 0.1743 | 785.25 | –
30480 kPa, m1 = 0.09327 | 779.14 | –
30610 kPa, m1 = 0.6899 | 821.98 | –
30610 kPa, m1 = 1.266 | 860.42 | –
30730 kPa, m1 = 0.4379 | 804.51 | –
30750 kPa, m1 = 1.55 | 880.1 | –
30860 kPa, m1 = 0.9896 | 842.93 | –
35150 kPa, m1 = 0.4379 | 807.92 | –
35290 kPa, m1 = 1.55 | 883.06 | –
35370 kPa, m1 = 0.9896 | 846.17 | –
35410 kPa, m1 = 0.09327 | 783.08 | –
35480 kPa, m1 = 1.266 | 864.22 | –
35640 kPa, m1 = 0.6899 | 825.77 | –
35860 kPa, m1 = 0.1743 | 789.53 | –
39260 kPa, m1 = 0.09327 | 785.92 | –
39380 kPa, m1 = 0.4379 | 810.96 | –
39490 kPa, m1 = 0.6899 | 828.45 | –
39880 kPa, m1 = 1.55 | 885.77 | –
39960 kPa, m1 = 1.266 | 867.59 | –
39970 kPa, m1 = 0.1743 | 792.5 | –
39970 kPa, m1 = 0.9896 | 849.2 | –

Source: the NIST ThermoML archive (doi:10.1021/je800234h)
